Test results as given in US9023882B2, “5-membered nitrogen containing heterocyclic derivatives and pharmaceutical compositions comprising the same” (Kissei Pharmaceutical Co., Ltd., priority 2007, dated 2015).
pIC50: −log10 of the molar value.

Target: Xanthine oxidase (from bovine milk, Sigma) (Bos taurus (Bovine), UniProt P80457)
Experiment: Xanthine oxidase inhibitory activity
Format: biochemical
Conditions: absorbance at 290 nm
How it was run: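 Bovine milk enzyme at 0.02 units/mL in PBS was mixed with compound (DMSO stock diluted in PBS) and 200 μM xanthine stock, reacting 10 min at room temperature. Uric acid formation was read as absorbance at 290 nm; IC50 was derived with no-xanthine wells as 0% and no-compound control as 100%.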

[1] = 0.02 units/mL, xanthine 200 μM, 10 minutes at room temperature

Xanthine oxidase (from bovine milk, Sigma), sequence (P80457 whole entry): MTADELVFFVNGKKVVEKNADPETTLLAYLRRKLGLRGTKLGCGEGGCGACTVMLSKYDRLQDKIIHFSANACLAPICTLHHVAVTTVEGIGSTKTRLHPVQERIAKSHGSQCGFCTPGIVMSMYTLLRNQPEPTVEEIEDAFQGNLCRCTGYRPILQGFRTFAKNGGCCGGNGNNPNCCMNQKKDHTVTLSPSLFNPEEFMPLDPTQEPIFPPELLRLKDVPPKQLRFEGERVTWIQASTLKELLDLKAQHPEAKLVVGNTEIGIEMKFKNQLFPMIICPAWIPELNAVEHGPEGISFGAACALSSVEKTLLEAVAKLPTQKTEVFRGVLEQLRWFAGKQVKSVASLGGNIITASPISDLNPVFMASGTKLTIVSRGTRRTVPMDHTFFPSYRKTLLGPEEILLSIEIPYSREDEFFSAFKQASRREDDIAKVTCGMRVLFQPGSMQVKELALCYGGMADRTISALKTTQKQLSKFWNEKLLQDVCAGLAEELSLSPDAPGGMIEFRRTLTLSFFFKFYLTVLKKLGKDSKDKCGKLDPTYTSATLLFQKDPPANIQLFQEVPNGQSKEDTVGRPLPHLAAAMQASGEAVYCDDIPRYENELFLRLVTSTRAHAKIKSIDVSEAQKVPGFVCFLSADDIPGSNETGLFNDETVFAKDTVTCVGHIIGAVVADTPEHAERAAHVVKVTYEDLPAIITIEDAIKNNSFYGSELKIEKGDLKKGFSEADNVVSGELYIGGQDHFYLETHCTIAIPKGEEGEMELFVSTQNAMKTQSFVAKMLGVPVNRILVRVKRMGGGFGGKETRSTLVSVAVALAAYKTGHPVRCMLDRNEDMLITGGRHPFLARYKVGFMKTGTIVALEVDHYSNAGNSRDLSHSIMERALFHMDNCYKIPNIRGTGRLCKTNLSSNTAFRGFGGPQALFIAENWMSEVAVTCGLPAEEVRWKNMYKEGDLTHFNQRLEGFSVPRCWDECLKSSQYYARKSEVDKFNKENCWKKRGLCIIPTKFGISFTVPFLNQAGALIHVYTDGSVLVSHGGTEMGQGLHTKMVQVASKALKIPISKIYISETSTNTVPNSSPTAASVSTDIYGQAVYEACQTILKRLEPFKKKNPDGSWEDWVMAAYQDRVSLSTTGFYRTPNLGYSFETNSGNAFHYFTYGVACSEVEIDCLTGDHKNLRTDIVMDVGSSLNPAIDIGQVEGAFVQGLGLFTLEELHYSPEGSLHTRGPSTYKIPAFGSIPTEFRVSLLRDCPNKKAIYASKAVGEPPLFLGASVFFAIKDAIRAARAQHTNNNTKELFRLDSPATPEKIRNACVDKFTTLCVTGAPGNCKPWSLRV

SMILES	pIC50 [1]	pIC50 (100 μM xanthine final)
Cc1ccc(COc2cccc(-c3cn(-c4ccc(C(=O)O)cc4)cc3C#N)c2)cc1 [Example 188]	6.88	–
CCOCCOc1ccccc1-c1cn(-c2ccc(C(=O)O)cc2)cc1C#N [Example 213]	7.77	–
N#Cc1cn(-c2ccc(C(=O)O)cc2)cc1-c1ccccc1OCCO [Example 152]	8.40	–
N#Cc1cn(-c2ccc(C(=O)O)cc2)cc1-c1cccc(OCC(=O)O)c1 [Example 159]	8.57	–
N#Cc1cn(-c2ccc(C(=O)O)c(O)c2)cc1-c1cccc(F)c1 [Example 265]	8.14	–
N#Cc1cn(-c2ccc(C(=O)O)c(O)c2)cc1-c1cccc(Cl)c1 [Example 278]	–	7.31
N#Cc1cn(-c2ccc(C(=O)O)c(O)c2)cc1-c1csc2ccccc12 [Example 291]	–	8.19
N#Cc1cn(-c2ccc(C(=O)O)c(O)c2)cc1-c1cccn1-c1ccccc1 [Example 304]	–	7.82
N#Cc1cn(-c2ccc(C(=O)O)cc2)cc1-c1cccc(OCc2ccccc2F)c1 [Example 189]	7.20	–
N#Cc1cn(-c2ccc(C(=O)O)c(O)c2)cc1-c1cc(F)ccc1F [Example 277]	–	8.00
N#Cc1cn(-c2ccc(C(=O)O)c(O)c2)cc1-c1ccc(C(=O)O)cc1 [Example 337]	–	8.40
N#Cc1cn(-c2ccc(C(=O)O)c(O)c2)cc1-c1ccc(O)cc1 [Example 339]	–	8.36
Cc1ccccc1-c1cn(-c2ccc(C(=O)O)c(O)c2)cc1C#N [Example 307]	–	8.12
CSc1ccc(-c2cn(-c3ccc(C(=O)O)c(O)c3)cc2C#N)cc1 [Example 350]	–	7.86
CN(C)/C=N/c1nn(-c2ccc(C(=O)O)cc2)cc1C#N [Example 261]	8.28	–
COc1ccc(-c2cn(-c3ccc(C(=O)O)c(O)c3)cc2C#N)cc1 [Example 316]	–	8.05
N#Cc1cn(-c2ccc(C(=O)O)c(O)c2)cc1CCc1ccccc1 [Example 287]	–	8.24
N#Cc1cn(-c2ccc(C(=O)O)cc2)cc1-c1ccccc1OCc1ccccc1 [Example 155]	7.28	–
COc1ccccc1-c1cn(-c2cc(C(=O)O)ccn2)cc1C#N [Example 366]	–	7.53
CC(C)Cc1cn(-c2ccc(C(=O)O)cc2)cc1C#N [Example 241]	8.44	–
N#Cc1nn(-c2ccc(C(=O)O)cc2)cc1-c1ccc2c(c1)OCO2 [Example 249]	8.03	–

Results, then the molecule that gave them:

pIC50 [1]	pIC50 (100 μM xanthine final)	SMILES
6.93	–	N#Cc1cn(-c2ccc(C(=O)O)cc2)cc1-c1cccc(OCc2cccc(F)c2)c1 [Example 190]
7.84	–	Cc1ccc(-c2cn(-c3ccc(C(=O)O)c(O)c3)cc2C#N)c(C)c1 [Example 273]
8.05	–	CCCCCCc1cn(-c2ccc(C(=O)O)cc2)cc1C#N [Example 246]
8.55	–	CCCCCc1cn(-c2ccc(C(=O)O)cc2)cc1C#N [Example 245]
–	6.84	N#Cc1cn(-c2cc(C(=O)O)ccn2)cc1-c1cccs1 [Example 360]
–	8.18	CCOC(=O)c1cn(-c2ccc(C(=O)O)c(O)c2)cc1C(F)(F)F [Example 298]
8.15	–	N#Cc1cn(-c2ccc(C(=O)O)cc2)cc1C(=O)N1CCCCC1 [Example 231]
8.15	–	N#Cc1cn(-c2ccc(C(=O)O)cc2)cc1-c1cccc2ccccc12 [Example 209]
–	8.21	COc1ccc(-c2cn(-c3ccc(C(=O)O)c(O)c3)cc2C#N)c(F)c1 [Example 283]
8.51	–	N#Cc1cn(-c2ccc(C(=O)O)cc2)nc1NC(=O)c1ccccc1 [Example 262]
–	8.01	N#Cc1cn(-c2cc(C(=O)O)ccn2)cc1-c1ccc2c(c1)OCCO2 [Example 369]
–	7.88	N#Cc1cn(-c2ccc(C(=O)O)c(O)c2)cc1-c1cccc2ccccc12 [Example 325]
–	7.54	COc1ccc(/C=C/c2cn(-c3ccc(C(=O)O)c(O)c3)cc2C#N)cc1 [Example 295]
–	8.00	CCCOc1cccc(-c2cn(-c3ccc(C(=O)O)c(O)c3)cc2C#N)c1 [Example 341]
–	8.08	COc1cccc(-c2cn(-c3ccc(C(=O)O)c(O)c3)cc2C#N)c1 [Example 279]
